We go through ten molecules from patent EP0368624A2, “Method and composition for stabilizing and solubilizing latex reagents” (Biotrack, Inc., priority 1988, dated 1990).

One assay in a line: Recovery of activity of antibody-latex reagent after drying on plastic (turbidimetric agglutination rate vs liquid control). The following applies: additive concentration 4 % in the aqueous latex suspension applied to the plastic. The source says:
An agglutinating polymer was made by covalent attachment of about nine molecules of a peptide antigen to polyaspartic acid (M=15,000). A latex reagent was made by adsorption of a monoclonal antibody (which binds to the peptide antigen) to small latex particles (85 nm diameter) by adsorption. […] The mixture was aspirated into a temperature controlled flow cell of a spectrophotometer with a 1 cm optical path length and rapidly heated to […]. The change of apparent absorbance at 540 nm was then recorded over 20s.
Liquid was removed by exposure to desiccant under a variety of conditions (flowing air, flowing dry N₂, or vacuum).
Additives were added to the latex suspension at the indicated concentrations prior to drying. Recovery is given in Table 2 as a percentage of the activity of a non-dried (liquid) control. […]
In the case of `OC[C@@H](O)[C@@H](O)[C@H](O)[C@H](O)CO` [Mannitol], the “Activity (%) Ref = Liq” value was 0%.

The assay is the same for the next values; noted with them: additive concentration 5 % in the aqueous latex suspension applied to the plastic.
On to `O=C([O-])[C@H](O)[C@@H](O)[C@H](O)[C@H](O)CO.[Na+]` [35D-Gluconic Acid-Na+, D-Gluconic Acid-Na+], for which the “Activity (%) Ref = Liq” value stood at 41%.

For `OC[C@@H](O)C(O)[C@H](O)CO` [D-arabitol], the “Activity (%) Ref = Liq” value came to 101%. On the same count and under the same terms, under `Cl.N[C@H]1C(O)O[C@H](CO)[C@@H](O)[C@@H]1O` (stereo partly drawn) [D-glucosamine-HCl] stands 25%; under `OC[C@@H](O)[C@H](O)[C@@H](O)CO` [D-xylitol], 92%. Same read-out and setting: in the case of `OC[C@H](O)C(O)[C@@H](O)CO` [L-arabitol] it was 94%. Still for that read-out and setting: under `OC[C@@H](O)[C@H](O)[C@@H](O)CO` [L-xylitol] stands 94%; under `OC[C@@H](O)[C@@H](O)[C@@H](O)CO` [Ribitol], 70%; under `OC[C@@H](O)[C@@H](O)[C@H](O)[C@@H](O)CO` [Sorbitol], 5%.

The nature of another assay: Agglutination of dried hepatitis B virus core antigen coated latex in cartridge with serum samples. Also on record: key: +: A positive reaction was recorded if the latex particles were agglutinated at the end of the track. Conditions: serum sample containing antibodies to hepatitis virus core antigen. As to the method: Antigen coated latex (prepared as in Example 5) (1 µL x 1.0% w/v suspended in 0·1M glycine pH 8·4 containing 0·1 6 M NaCl and 3 mM Sodium Azide either with or without 5% sucrose) was coated on the surface of piece of PETG plastic. After drying under a stream of dry nitrogen, the piece was incorporated into a cartridge by lamination of a track excised from double sided adhesive tape (4 mill thick) as described in USP 4,756,884. To test the activity of the dry reagent films, serum samples containing or not containing antibodies to hepatitis virus core antigen were applied to the sample application site and the reaction between the sample and the reagent film observed as the sample flowed over the film and the mixture was drawn down the part of the track distal from the sample application site. A positive reaction was recorded if the latex particles were agglutinated at the end of the track.
As for `OC[C@H]1O[C@@](CO)(O[C@H]2O[C@H](CO)[C@@H](O)[C@H](O)[C@H]2O)[C@@H](O)[C@@H]1O` [Sucrose], the “Agglutination + sample” value is “+”.
